The text below walks through data of patent US20170049782A1 (SK CHEMICALS CO., LTD., priority 2014, published 2017).

As usually defined, the bioavailability is dose-corrected exposure relative to a reference, in per cent.

A short description of series [1]: Solubility / dissolved fraction of active ingredient (I) in water (background). The series is classed as physicochemical. The source says: At single administration and repetitive administration, there is a difference in blood concentration depending on whether taking food or not, and food intake is blamed for causing the difference (Xia et al., British Journal of Clinical Pharmacology, 2009, 68:1, p 77-88). This is a reason for decrease of drug efficacy to patients taking food irregularly, and a negative cause, which may make patients feel uncomfortable for taking drug. […] Thus, its bioavailability reach to 100% when it is administered with food because residual insoluble drugs are absorbed by oil content present in the food and a surfactant such as bile acid secreted in the body (Samama et al. Thrombosis Journal 2013, 11:11, p 1-7).

The conditions of series [2]: cited from earlier work.

Each structure is given as a SMILES string. Where two headings read alike, the source gives them in different places.

Consider `O=C(NC[C@H]1CN(c2ccc(N3CCOCC3=O)cc2)C(=O)O1)c1ccc(Cl)s1` [active ingredient (I)], for which the “drug dissolved in dissolution solution” value was at least 90% in series [1] (10 mg in 900 ml) and 50% in series [1] (20 mg in 900 ml). The bioavailability in series [2] (10 mg, regardless of a meal) was 100%; in series [2] (20 mg, administered before a meal / under fasted condition), “about 66%”; in series [2] (20 mg, administered with food) it was 100%.
